In ChEMBL document CHEMBL1158366, “Gallium(III) complexes of 2-pyridineformamide thiosemicarbazones: cytotoxic activity against malignant glioblastoma” (Eur J Med Chem, 2009):
Calls of active or inactive are those of the source. The rule behind the calls is not given here.

Tests used:
[1] = Cytotoxicity against human T98 cells expressing mutant p53 protein after 48 hrs by MTT assay; format: functional, cell-based; details: T98, 48 h
[2] = Cytotoxicity against rat RT2 cells expressing wild type p53 protein after 48 hrs by MTT assay; format: functional, cell-based; details: RT2, 48 h
[3] = Toxicity in human RBC membrane assessed as hemolysis after 1 hr by spectrophotometry; format: cell-based, Erythrocyte; details: red blood cells (RBC membrane)
T98 [4] = experiment: Induction of apoptosis in human T98 cells expressing mutant p53 protein assessed as cell membrane morphological changes at 100 uM after 48 hrs by phase contrast microscopy; format: functional, cell-based
RT2 [5] = experiment: Induction of apoptosis in rat RT2 cells expressing wild type p53 protein assessed as DNA fragmentation at 100 uM after 48 hrs using DAPI staining by UV/fluorescence microscopy; format: functional, cell-based
T98 [6] = experiment: Induction of apoptosis in human T98 cells expressing mutant p53 protein assessed as DNA fragmentation at 100 uM after 48 hrs using DAPI staining by UV/fluorescence microscopy; format: functional, cell-based
RT2 [7] = experiment: Induction of apoptosis in rat RT2 cells expressing wild type p53 protein assessed as cell membrane morphological changes at 100 uM after 48 hrs by phase contrast microscopy; format: functional, cell-based

| SMILES | IC50 [1] | IC50 [2] | IC50 at 1 hr [3] | Activity (T98 [4]) | Activity (RT2 [5]) | Activity (T98 [6]) | Activity (RT2 [7]) |
| --- | --- | --- | --- | --- | --- | --- | --- |
| CCNC(=S)N/N=C(\N)c1ccccn1 | 143 µM | 359 µM | > 1000 µM |  |  |  |  |
| CNC(=S)N/N=C(\N)c1ccccn1 | 32 µM | 12.2 µM | > 1000 µM | Active | Active | Active | Active |
| NC(=S)N/N=C(\N)c1ccccn1 | 3.6 µM | 7.28 µM | > 1000 µM |  |  |  |  |
